Laboratory results taken from patent US20120121574A1, “ANTIMICROBIAL, ANTIVIRAL, ANTICANCER AND IMMUNOMODULATORY PEPTIDES AND USES THEREFORE” (priority 2010, published 2012).
Where no end group is shown, it is not given here.

Experiments:
C. albicans CA-6 strain = experiment: murine model of systemic candidiasis; assay type: in vivo, Balb/c mice
Procedure: CFU recovery from the kidneys of mice was determined 7 and 12 days after fungal infection.
Mice were infected intravenously with the opportunistic fungus C. albicans and treated with mouse VHCDR3 or VLCDR3 (used as a negative control) intraperitoneally 4 hr before (200 micrograms), and 1 (100 micrograms) and 2 (100 micrograms) days after infection. Animal survival and fungal burden in kidneys were evaluated in different groups of mice. […] Error bars, s.e.m.

C. albicans cells = experiment: direct candidacidal activity in vitro (strain not stated); assay type: cell-based, Candida albicans
[1] = system: peritoneal murine macrophages (PM); experiment: in vitro immunomodulatory activity on murine peritoneal macrophages (PM); assay type: cell-based, mouse
Procedure: In vitro immunomodulatory activity of MoA VHCDR3 on murine immune cells. FIGS. 47-51 are graphs showing TNF-α and IL-6 production by PM and PMN stimulated with MoA CDRs and mouse MoA VHCDR3 uptake by different cell populations. Cells were cultured in the presence or absence (NS) of human and/or mouse CDRs, lipopolisaccharide (LPS), or negative control peptide (NC) (all 10 micrograms/ml) for 18 hr. Both PM and PMN cell populations were 5×10^6/ml. After incubation, TNF-α and IL-6 levels were evaluated in culture supernatants by specific ELISA assays (* P<0.05 treated vs untreated cells, n=7). In FIG. 51, dendritic cells (DC), PM, PMN, and T cells (all 1×10^6/ml) were incubated for 1 hr in the presence or absence (NS) of biotinylated (b)-MoA VHCDR3 or b-NC (both 10 micrograms/ml). After incubation, permeabilized cells were reacted with FITC-labelled mAb to biotin (b) and analyzed by FACScan flow cytometry. Data are reported as the percentage of positive cells *, P<0.05 (b-VHCDR3 treated vs untreated cells, n=5). Error bars, s.e.m. FIGS. 52A and B show graphs and colored cell staining micrograph of kinetic of VHCDR3 uptake by PM. PM (1×10^6/ml) were incubated for different times with b-VHCDR3 or b-NC (all 10 micrograms/ml). After incubation, permeabilized cells were reacted with FITC-labelled mAb to biotin and analyzed by FACScan flow cytometry. Data are reported as the mean fluorescence intensity (MFI) and percentage of positive cells (FIG. 52A) (* P<0.05 b-VHCDR3-treated vs untreated cells, n=7). Error bars, s.e.m. In selected experiments, cells were incubated for 1 hr as above described, reacted with FITC-labelled mAb to biotin in the presence of Evans' Blue as a counter stain, and subsequently examined under fluorescent light microscopy (FIG. 52B). Note the green fluorescence of b-VHCDR3 treated cells. Original magnification 20×. In FIGS. 53 and 54 is shown the phospho-Akt activation and TNF-α production in PM stimulated with MoA VHCDR3. PM (3×10^6/ml) were stimulated for 1 hr in the presence or absence (NS) of MoA VHCDR3, LPS, an irrelevant control peptide (NC) or a scrambled peptide (SP) (all 10 micrograms/ml). After incubation, cell lysates were subjected to Western blotting. Membranes were incubated with Abs to pAkt and Akt; pAkt was normalized against Akt (FIG. 53)*, P<0.05 (treated vs untreated cells, n=5). […] PM (5×10^6/ml) were stimulated for 18 hr as above described. After incubation, TNF-α level was evaluated in culture supernatants by specific ELISA assays. (FIG. 54)*, P<0.05 (treated vs untreated cells, n=5). In FIGS. 55 and 56 is shown the phospho-IkBα activation and TNF-α gene expression in PM stimulated with MoA VHCDR3. PM (3×10^6/ml) were stimulated for 1 hr in the presence or absence (NS) of wortmannin (4 nM), MoA VHCDR3, LPS or NC (all 10 micrograms/ml). After incubation, cell lysates were subjected to Western blotting. Membranes were incubated with Abs to pIkBα and IkBα; pIkBα was normalized against IkBα. (FIG. 55)*, P<0.05 (treated versus untreated cells, n=5); †, P<0.05 (wortmannin-treated vs wortmannin-untreated cells, n=5). For testing the expression level of TNF-α gene, PM (1×10^6/ml) were cultured for 1, 6 and 18 hr as above described. After incubation, total RNA was isolated and analyzed for mRNA expression with RT-PCR (FIG. 56). Transcript copy numbers were determined by qPCR using cDNA as a template. Copy numbers were normalized against the copy number of the GADPH gene (B). […]

[2] = system: P. aeruginosa ATCC 25853 strain; experiment: CFU assay against P. aeruginosa; assay type: cell-based, Pseudomonas aeruginosa
[3] = system: E. coli ATCC 25922 strain; experiment: CFU assay against E. coli; assay type: cell-based, Escherichia coli
M. furfur 101 strain = experiment: CFU assay against M. furfur; assay type: cell-based, Malassezia furfur
Procedure: After the incubation period, the cell suspensions were plated on Sabouraud dextrose agar added with Tween 20 (1%), then incubated at 30° C. and observed for CFU enumeration after 72 hours.
After the incubation period, the cell suspensions have been plated on Sabouraud dextrose agar added with Tween 20 (1%), then incubated at 30° C. and observed for CFU enumeration after 72 hours.

A. fumigatus 1163 strain = experiment: CFU assay against A. fumigatus conidia; assay type: cell-based, Aspergillus fumigatus
Procedure: After the incubation period, the conidial suspensions have been plated on Sabouraud dextrose agar, then incubated at 30° C. and observed for CFU enumeration after 48 hours.
After the incubation period, the cell suspensions have been plated on Sabouraud dextrose agar, then incubated at 30° C. and observed for CFU enumeration after 48 hours.

S. aureus 29213 strain = experiment: CFU assay against S. aureus; assay type: cell-based, Staphylococcus aureus
Procedure: (§1) In vitro activity of N10K against S. aureus 29213 strain. The microbicidal activity of N10K peptide against S. aureus has been evaluated by a conventional CFU assay. Cells of S. aureus 29213 have been incubated at 37° C. for 5 hours in the presence of N10K at the concentration of 50, 45 or 40 micrograms/ml, or in distilled water as control growth. After the incubation period, the cell suspensions have been plated on Mueller Hinton agar, then incubated at 37° C. and observed for CFU enumeration after 24 hours.
as §1, with “T11F” for “N10K”, “bactericidal” for “microbicidal”, “40” for “45”, “30” for “40”
In vitro activity of H4L against S. aureus 29213 strain. The bactericidal activity of H4L peptide against S. aureus has been evaluated by a conventional CFU) assay. […]
In vitro activity of MoA VHCDR3 against S. aureus 29213 strain. The microbicidal activity of MoA VHCDR3 peptide against S. aureus has been evaluated by a conventional CFU assay. […]

[4] = system: K. pneumoniae ATCC 700603 strain; experiment: CFU assay against K. pneumoniae; assay type: cell-based, Klebsiella pneumoniae
[5] = system: C. albicans SC5314 strain
Procedure: In vitro activity of N10K against C. albicans SC5314 strain. The candidacidal activity of N10K peptide against C. albicans was assessed by a conventional colony forming unit (CFU) assay as previously described (Polonelli et al., 2003; Manfredi et al., 2005). Briefly, cells of C. albicans SC5314 were incubated at 37° C. for 6 hours (hr) in the presence of N10K at the concentration indicated of 20, 12.5 or 6.25 microgram/ml, or in distilled water as control (C). After incubation, cell suspensions were plated on Sabouraud dextrose agar and incubated at 30° C. for 48 hours when CFU were counted (** P<0.01 for N10K treated versus untreated cells, by t test). […]
The alanine-substituted derivatives (asd), defined according to the position held by the alanine-substituted aminoacid, were tested against C. albicans by a conventional colony forming unit (CFU) as previously described (Polonelli et al., 2003). Briefly, cells of C. albicans SC5314 were incubated at 37° C. for 6 hours in the presence of N10K or N10K asd at different scalar concentrations or distilled water as control. After incubation, cell suspensions were plated on Sabouraud dextrose agar and incubated at 30° C. for 48 hours when CFU were counted. Based on several independent replications, the EC50 value of each peptide was calculated by nonlinear regression analysis using Graph Pad Prism 4.01 software, San Diego, Calif., USA. […]
In vitro microbicidal activity of N10K derivative with 2 amino acid substitutions, or 80% sequence identity with native N10K, namely peptide Seq Id. No. 25 was tested against Candida albicans SC5314 as determined by Colony Forming Unit assay.

Human monocytes = experiment: in vitro immunomodulatory activity on human monocytes; assay type: cell-based; conditions: 10 micrograms/ml, 18 hr, ELISA
Procedure: Human monocytes or PMN (both 10×10^6/ml) were incubated in RPMI 1640 plus 10% FCS for 18 hr or 6 hr respectively in the presence or in the absence (NS) of LPS, negative control (NC) and peptides (all 10 micrograms/ml). After incubation culture supernatants were collected and tested for cytokines production by specific ELISA. […] Monocytes were incubated for 30 minutes in presence or absence (NS) of NC or N10K (both 10 micrograms/ml) or Cytochalasin D (30 μM). After incubation cells have been stimulated for 30 minutes with non opsonized h.i. […] The percentage of phagocytosis (FIG. 18A) and the medium number of yeast particles adhered or ingested by each monocyte (phagocytic index) (FIG. 18B) have been determined by cytofluorimetric analysis. […] PBMC have been incubated 30 minutes in presence or absence (NS) of NC or N10K (both 10 micrograms/ml). After incubation PBMC have been stimulated for 18 h with LPS (10 micrograms/ml) or h.i. […] The levels of IL-12p40 and IL-6 have been evaluated in the supernatants by ELISA Kit.
After incubation culture supernatants were collected and tested for cytokines production by specific ELISA. […]

[6] = peptide 100 micrograms/ml, 5 hours 37° C.

G Q Y G N L W F A Y (GQYGNLWFAY) [MoA VHCDR3, CDR3 fragment of the H chain of a murine IgM mAb directed to difucosyl human blood group A substance]
Activity (C. albicans CA-6 strain; Table III, in vivo, Fungus, for MoAVHCDR3 the wrapped cell reads Indirectly cidal up regulation of TNF-α, TLR-4): Indirectly
CFU recovery from kidneys (C. albicans CA-6 strain; intraperitoneally 200 micrograms 4 hr before, 100 micrograms 1 and 2 days after infection, 5, 7 and 12 days after infection, versus negative control mice): impressive decrease
survival of infected mice (C. albicans CA-6 strain; intraperitoneally 200 micrograms 4 hr before, 100 micrograms 1 and 2 days after infection, versus untreated or MoA VLCDR3 treated): significant increase in survival
activity against C. albicans cells in vitro (C. albicans cells): ineffective
TLR-4 expression ([1]; 10 micrograms/ml): up-regulates TLR-4
Akt activation (phospho-Akt) ([1]; 10 micrograms/ml, 1 hr, Western blotting): induces Akt activation
TNF-α production by PM ([1]; 10 micrograms/ml, ELISA): stimulate PM to produce TNF-α
TNF-α mRNA ([1]; 1 hr post stimulation, 10 micrograms/ml): detected
Activity (Stimulation of TNF-α, IL-6) ([1]; Table III, in vitro, Immune cells): Stimulation
Activity ([2]; Table III, in vitro): cidal
bactericidal activity (CFU) [2, 6]: showed bactericidal activity
Activity ([3]; Table III, in vitro): cidal
bactericidal activity (CFU) [3, 6]: showed bactericidal activity
Activity (M. furfur 101 strain; Table III, in vitro): cidal
fungicidal activity (CFU) (M. furfur 101 strain; peptide 100 micrograms/ml, 6 hours 30° C.): showed fungicidal activity
Activity (A. fumigatus 1163 strain; Table III, in vitro): cidal
fungicidal activity (CFU) (A. fumigatus 1163 strain; peptide 100 micrograms/ml, 18 hours 30° C.): showed fungicidal activity
Activity (S. aureus 29213 strain; Table III, in vitro): cidal
bactericidal activity (CFU) (S. aureus 29213 strain; [6]): showed bactericidal activity
Activity ([4]; Table III, in vitro): cidal
bactericidal activity (CFU) [4, 6]: showed bactericidal activity

NAVSLTCLVK [asd Q2A N10K, N A V S L T C L V K]
EC50 ([5]; SC5314, 6 h): 2300 nM
EC50asd/EC50N10K ([5]; Table IX): 2.30
IL-6 production by human monocytes (Human monocytes): strong enhancement
